Test results published in US12121514B2, “Nonselective metabotropic glutamate receptor activators for treatment of attention deficit disorder and 22Q syndrome” (THE CHILDREN'S HOSPITAL OF PHILADELPHIA, priority 2015, dated 2024).
Several values for one entry are separate records, joined by “and”; a condition that tells them apart may be missing. Identical values can stand only once.

System: adolescent subjects with ADHD and at least one genetic alteration in an mGluR network gene
Test: PERMP-Math test, Phase Ib trial of NFC-1
Format: in vivo, human
Conditions: for Change in PERMP / Final PERMP: individual subjects, monohydrate; for Change in PERMP: placebo baseline (week 1) to final (week 5); for Final PERMP: week 5
From the text: The Permanent Product Measure of Performance (PERMP)-Math is an individualized mathematics test that can be performed by a patient periodically when on and off medication for ADHD. It is used, for example, to monitor classroom performance in an experimental laboratory setting. In general, the PERMP test comprises 5 pages of 400 problems that subjects are directed to attempt over a 10-minute period. Subjects may be given a pre-test first to determine their mathematical skill level. Subjects are directed to answer as many questions as they can in the 10-minute period and the test is generally scored on a 0-800-point scale based on the number of questions attempted and the number of questions answered correctly within the time limit. Subjects receive a different version of the test at each setting. All efficacy assessments, except actigraphy, were made at study enrollment (“enrollment baseline”) and again, including actigraphy, once-per-week for the placebo week (“week 1” or “placebo baseline”) and at each of the 4 weeks of NFC-1 treatment. These efficacy measures include items 1-18 of the Vanderbilt scale assessing symptoms related to inattentiveness and hyperactivity-impulsiveness as well as additional questions 19-47 of the Vanderbilt scale assessing other behavioral symptoms (conducted by parent), actigraphy for quantitative measurement of activity, Quotient® ADHD test for objective measurement of micro-motion and shifts in attention state, PERMP-Math test, and CGI-I and CGI-S for assessment of global functioning. Prior to receiving the PK assessment dose, subjects returned to the clinic to be administered the PERMP-Math tests, subjected to actigraphy (set to activate at the time of first placebo dose 2 days later), and to be given a general physical examination including vital signs and weight, blood and urine sampling, and a pregnancy test for female subjects. During the 5-week placebo and dose-escalation phases of the study, subjects visited the clinic again at the end of each week to be administered the Quotient® and PERMP-Math tests, subjected to actigraphy, Vanderbilt and BRIEF measurements (conducted by parent), and to be given a general physical examination including vital signs and weight, blood and urine sampling, and a pregnancy test for female subjects. Based on the data in Table 1, the mean change in PERMP score from pre-study baseline to week 5 was negative 3.43. When analyzed based on genetic tier, there were no significant differences from the overall mean change. […] The test was conducted at the time of clinic visits and thus, for each subject, was not necessarily given at the same time post dose or same time of day from one week to the next. The test was also conducted during a clinic visit and not in a classroom setting. Thus, clinic waiting room distractions, for example, could have varied from one visit to the next and were not controlled.

Structure (SMILES): O=C1CC[C@H](C(=O)N2CCCCC2)N1 [NFC-1, fasoracetam monohydrate]
- PERMP (22q syndrome Subject 110, Week 2, 50 mg bid): 55
- PERMP (22q syndrome Subject 110, Week 3, 100 mg bid): 51
- PERMP (22q syndrome Subject 110, Week 4, 200 mg bid): 75
- PERMP (22q syndrome Subject 110, Week 5, 400 mg bid): 71
- PERMP (22q syndrome Subject 127, Week 2, 50 mg bid): 167
- PERMP (22q syndrome Subject 127, Week 3, 100 mg bid): 68
- PERMP (22q syndrome Subject 127, Week 4, 200 mg bid): 72
- PERMP (22q syndrome Subject 127, Week 5, 400 mg bid): 64
- Change in PERMP (max dose 100 mg bid): 23 and 0 and 2
- Final PERMP (max dose 100 mg bid): 101 and 125 and 135
- Change in PERMP (max dose 200 mg bid): −18 and 19 and 4 and 31 and −70 and 43 and −2 and −24 and −11
- Final PERMP (max dose 200 mg bid): 103 and 111 and 76 and 160 and 55 and 152 and 71 and 80 and 74
- Change in PERMP (max dose 400 mg bid): −43 and 26 and −9 and 23 and −11 and 12 and 14 and −12 and 0 and −16 and −4 and −37 and 9 and −28 and −14 and −2 and 15 and −23
- Final PERMP (max dose 400 mg bid): 87 and 71 (2×) and 88 and 93 and 48 and 68 and 92 and 64 (3×) and 99 and 80 and 34 and 104 and 46 and 75 and 168
- PERMP results over the course of the study (overall): did not show significant change
